Assays:
[1] = system: LOLRI; assay: Pre-emergence herbicidal action against LOLRI; type: in vivo, Lolium rigidum; conditions: Lolium rigidum, 504 h
Outline: (§1)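 Pre-emergence soil-surface spray of formulated compound (WP or EC; 600 to 800 l/ha; 0.2% wetting agent) over seeds sown in sandy loam. After 3 weeks under greenhouse conditions, damage is estimated visually in percent against untreated plants.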

[2] = system: AVEFA; assay: Pre-emergence herbicidal action against AVEFA; type: in vivo, Avena fatua; conditions: Avena fatua, 504 h, pre-emergence
Outline: as §1

[3] = system: AMARE; assay: Post-emergence herbicidal action against AMARE; type: in vivo, Amaranthus retroflexus; conditions: Amaranthus retroflexus, 504 h, visual assessment about 3 weeks after treatment, 100% = plants have died, 0% = like control plants
Outline: (§2)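 Greenhouse plants in sandy loam were sprayed at the one-leaf stage, 2 to 3 weeks after sowing, with WP or EC formulations as aqueous suspension or emulsion (600 to 800 l/ha water, 0.2% wetting agent). Visual damage was scored about 3 weeks later versus untreated controls, 0% = like control, 100% = dead.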

[4] = system: VERPE; assay: Post-emergence herbicidal action against VERPE; type: in vivo, Veronica persica; conditions: Veronica persica, 504 h
Outline: as §2

[5] = system: PHBPU; assay: Post-emergence herbicidal action against PHBPU; type: in vivo, Pharbitis purpurea; conditions: Ipomoea purpurea, 504 h
Outline: as §2

[6] = system: AVEFA; assay: Post-emergence herbicidal action against AVEFA; type: in vivo, Avena fatua; conditions: Avena fatua, 504 h, visual assessment about 3 weeks after treatment, 100% = plants have died, 0% = like control plants
Outline: as §2

[7] = system: HORMU; assay: Post-emergence herbicidal action against HORMU; type: in vivo, Hordeum murinum; conditions: Hordeum murinum, 504 h
Outline: as §2

[8] = system: ALOMY; assay: Pre-emergence herbicidal action against ALOMY; type: in vivo, Alopecurus myosuroides; conditions: Alopecurus myosuroides, 504 h, pre-emergence; for pest or weed control at 80 g/ha: scored visually after 3 weeks vs untreated controls (100% = plants have died, 0% = like control plants)
Outline: as §1

[9] = system: AMARE; assay: Pre-emergence herbicidal action against AMARE; type: in vivo, Amaranthus retroflexus; conditions: Amaranthus retroflexus, 504 h, 100% = plants have died, 0% = like control plants; for pest or weed control at 20 g/ha / pest or weed control at 80 g/ha: scored visually after 3 weeks vs untreated controls
Outline: as §1

[10] = system: LOLRI; assay: Post-emergence herbicidal action against LOLRI; type: in vivo, Lolium rigidum; conditions: Lolium rigidum, 504 h
Outline: as §2

[11] = system: STEME; assay: Pre-emergence herbicidal action against STEME; type: in vivo, Stellaria media; conditions: Stellaria media, 504 h; for pest or weed control at 80 g/ha: dosage 80 g/ha
Outline: as §1

[12] = system: STEME; assay: Post-emergence herbicidal action against STEME; type: in vivo, Stellaria media; conditions: Stellaria media, 504 h
Outline: as §2

[13] = system: VIOTR; assay: Post-emergence herbicidal action against VIOTR; type: in vivo, Viola tricolor; conditions: Viola tricolor, 504 h
Outline: as §2

[14] = system: ABUTH; assay: Pre-emergence herbicidal action against ABUTH; type: in vivo, Abutilon theophrasti; conditions: Abutilon theophrasti, 504 h; for pest or weed control at 80 g/ha: scored visually after 3 weeks vs untreated controls (100% = plants have died, 0% = like control plants); for pest or weed control at 20 g/ha: dosage 20 g/ha, scored visually after 3 weeks vs untreated controls, read-out: Pre-emergence action against ABUTH (herbicidal activity in percent)
Outline: as §1

[15] = system: ECHCG; assay: Post-emergence herbicidal action against ECHCG; type: in vivo, Echinochloa crus-galli; conditions: Echinochloa crus-galli, 504 h; for pest or weed control at 20 g/ha: dosage 20 g/ha
Outline: as §2

[16] = system: SETVI; assay: Pre-emergence herbicidal action against SETVI; type: in vivo, Setaria viridis; conditions: Setaria viridis, 504 h; for pest or weed control at 80 g/ha: dosage 80 g/ha
Outline: as §1

[17] = system: HORMU; assay: Pre-emergence herbicidal action against HORMU; type: in vivo, Hordeum murinum; conditions: Hordeum murinum, 504 h, pre-emergence
Outline: as §1

[18] = system: MATIN; assay: Pre-emergence herbicidal action against MATIN; type: in vivo, Matricaria inodora; conditions: Tripleurospermum inodorum, 504 h; for pest or weed control at 80 g/ha: dosage 80 g/ha
Outline: as §1

[19] = system: VERPE; assay: Pre-emergence herbicidal action against VERPE; type: in vivo, Veronica persica; conditions: Veronica persica, 504 h; for pest or weed control at 80 g/ha: dosage 80 g/ha
Outline: as §1

[20] = system: MATIN; assay: Post-emergence herbicidal action against MATIN; type: in vivo, Matricaria inodora; conditions: Tripleurospermum inodorum, 504 h
Outline: as §2

[21] = system: ECHCG; assay: Pre-emergence herbicidal action against ECHCG; type: in vivo, Echinochloa crus-galli; conditions: Echinochloa crus-galli, 504 h
Outline: as §1

[22] = system: VIOTR; assay: Pre-emergence herbicidal action against VIOTR; type: in vivo, Viola tricolor; conditions: Viola tricolor, 504 h; for pest or weed control at 80 g/ha: dosage 80 g/ha
Outline: as §1

[23] = 100% = plants have died, 0% = like control plants
[24] = 320 g/ha, scored visually after 3 weeks, 100% = plants have died, 0% = like control plants

## CCc1c(C(=O)Nc2nnnn2C)ccc(C(F)(F)F)c1C(=O)NC1CC1 [Example 1-273]
[1]; 80 g/ha
  pest or weed control at 80 g/ha: 80%
[2]
  pest or weed control at 80 g/ha: 100%
[3]
  pest or weed control at 20 g/ha: 100%
[4]
  pest or weed control at 20 g/ha: 90%
[5]; dosage 20 g/ha
  pest or weed control at 20 g/ha: 80%
[6]
  pest or weed control at 20 g/ha: 90%
[7]; dosage 5 g/ha
  pest or weed control at 5 g/ha: 80%
[7]; dosage 20 g/ha
  pest or weed control at 20 g/ha: 90%
[8]
  pest or weed control at 80 g/ha: 90%
[9]
  pest or weed control at 20 g/ha: 100%
  pest or weed control at 80 g/ha: 100%
[10]; dosage 20 g/ha
  pest or weed control at 20 g/ha: 80%
[11]; dosage 20 g/ha
  pest or weed control at 20 g/ha: 100%
[11]
  pest or weed control at 80 g/ha: 100%
[12]
  pest or weed control at 20 g/ha: 100%
[12]; dosage 5 g/ha
  pest or weed control at 5 g/ha: 90%
[13]; 5 g/ha
  pest or weed control at 5 g/ha: 100%
[13]
  pest or weed control at 20 g/ha: 100%
[14]
  pest or weed control at 80 g/ha: 100%
[14]; [23]
  pest or weed control at 20 g/ha: 100%
[15]; dosage 5 g/ha
  pest or weed control at 5 g/ha: 80%
[15]
  pest or weed control at 20 g/ha: 90%
[16]; dosage 20 g/ha
  pest or weed control at 20 g/ha: 100%
[16]
  pest or weed control at 80 g/ha: 100%
[17]
  pest or weed control at 80 g/ha: 80%
[18]; dosage 20 g/ha
  pest or weed control at 20 g/ha: 100%
[18]
  pest or weed control at 80 g/ha: 100%
[19]
  pest or weed control at 80 g/ha: 90%
[20]; dosage 5 g/ha
  pest or weed control at 5 g/ha: 100%
[20]; dosage 20 g/ha
  pest or weed control at 20 g/ha: 100%
[21]; 20 g/ha
  pest or weed control at 20 g/ha: 90%
[21]
  pest or weed control at 80 g/ha: 100%
[22]; dosage 20 g/ha
  pest or weed control at 20 g/ha: 100%
[22]
  pest or weed control at 80 g/ha: 100%

## CCn1nnnc1NC(=O)c1ccc(C(F)(F)F)c(C(N)=O)c1Cl [Example 2-338]
[1]; 320 g/ha
  pest or weed control at 320 g/ha: 100%
[2]
  pest or weed control at 80 g/ha: 90%
[2]; [24]
  pest or weed control at 320 g/ha: 100%
[3]
  pest or weed control at 20 g/ha: 100%
[3]; 80 g/ha
  pest or weed control at 80 g/ha: 100%
[4]
  pest or weed control at 20 g/ha: 90%
[4]; 80 g/ha
  pest or weed control at 80 g/ha: 100%
[5]; dosage 80 g/ha
  pest or weed control at 80 g/ha: 90%
[6]
  pest or weed control at 20 g/ha: 80%
[6]; 80 g/ha
  pest or weed control at 80 g/ha: 100%
[7]; dosage 80 g/ha
  pest or weed control at 80 g/ha: 100%
[8]
  pest or weed control at 80 g/ha: 90%
[8]; [24]
  pest or weed control at 320 g/ha: 100%
[9]
  pest or weed control at 20 g/ha: 90%
  pest or weed control at 80 g/ha: 100%
[9]; 320 g/ha, scored visually after 3 weeks
  pest or weed control at 320 g/ha: 100%
[10]; dosage 80 g/ha
  pest or weed control at 80 g/ha: 90%
[11]
  pest or weed control at 80 g/ha: 90%
[11]; dosage 320 g/ha
  pest or weed control at 320 g/ha: 100%
[12]
  pest or weed control at 20 g/ha: 90%
[12]; 80 g/ha
  pest or weed control at 80 g/ha: 100%
[13]
  pest or weed control at 20 g/ha: 100%
[13]; 80 g/ha
  pest or weed control at 80 g/ha: 100%
[14]
  pest or weed control at 80 g/ha: 100%
[14]; Dosage: 320 g/ha, scored visually after 3 weeks, 100% = plants have died, 0% = like control plants
  pest or weed control at 320 g/ha: 100%
[14]; [23]
  pest or weed control at 20 g/ha: 90%
[15]
  pest or weed control at 20 g/ha: 80%
[15]; dosage 80 g/ha
  pest or weed control at 80 g/ha: 100%
[16]
  pest or weed control at 80 g/ha: 90%
[16]; dosage 320 g/ha
  pest or weed control at 320 g/ha: 100%
[17]
  pest or weed control at 80 g/ha: 80%
[17]; 320 g/ha
  pest or weed control at 320 g/ha: 100%
[18]
  pest or weed control at 80 g/ha: 90%
[18]; dosage 320 g/ha
  pest or weed control at 320 g/ha: 100%
[19]
  pest or weed control at 80 g/ha: 100%
[19]; dosage 320 g/ha
  pest or weed control at 320 g/ha: 100%
[21]
  pest or weed control at 80 g/ha: 90%
[21]; 320 g/ha
  pest or weed control at 320 g/ha: 100%
[22]
  pest or weed control at 80 g/ha: 100%
[22]; dosage 320 g/ha
  pest or weed control at 320 g/ha: 100%

— patent US12655116B2, “Substituted isophthalic acid diamides” (Bayer Aktiengesellschaft, priority 2020, dated 2026)
